# In ChEMBL document CHEMBL1201862, “PubChem BioAssay data set” (2004):
#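 96-well plates; 48 h exposure; 5 concentrations. Endpoints by linear interpolation between flanking doses. Not reached: highest tested concentration assigned. Here, GI50 denotes the concentration required for 50% inhibition of growth.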 The source made the active and inactive calls. Rule as the data show it: active = GI50 up to about 1.1 µM and inactive = higher.
# How the values were obtained:
# Experiment in all cases: NCI tumour cell line growth inhibition, 48 h
# HOP-92 = test system: HOP-92
# TK-10 = test system: TK-10
# SK-MEL-28 = test system: SK-MEL-28
# 786-0 = test system: 786-0
# HOP-62 = test system: HOP-62
# NCI-H460 = test system: NCI-H460
# LOX IMVI = test system: LOX IMVI
# HCT-15 = test system: HCT-15
# T47D = test system: T47D
# SNB-19 = test system: SNB-19
# UO-31 = test system: UO-31
# Malme-3M = test system: Malme-3M
# NCI-H23 = test system: NCI-H23
# OVCAR-8 = test system: OVCAR-8
# SF-295 = test system: SF-295
# SR = test system: SR
# M14 = test system: M14
# HCT-116 = test system: HCT-116
# COLO 205 = test system: COLO 205
# CCRF-CEM = test system: CCRF-CEM
# NCI-H522 = test system: NCI-H522
# RPMI-8226 = test system: RPMI-8226
# NCI/ADR-RES = test system: NCI/ADR-RES
# BT-549 = test system: BT-549
# MDA-MB-231 = test system: MDA-MB-231
# SK-OV-3 = test system: SK-OV-3
# HL-60 = test system: HL-60
# A549 = test system: A549
# SK-MEL-2 = test system: SK-MEL-2
# PC-3 = test system: PC-3
# UACC-62 = test system: UACC-62
# KM12 = test system: KM12
# SF-539 = test system: SF-539
# SN12C = test system: SN12C
# OVCAR-4 = test system: OVCAR-4
# MOLT-4 = test system: MOLT-4
# UACC-257 = test system: UACC-257
# SF-268 = test system: SF-268
# DU-145 = test system: DU-145
# ACHN = test system: ACHN
# K562 = test system: K562
# RXF 393 = test system: RXF 393
# OVCAR-5 = test system: OVCAR-5
# SK-MEL-5 = test system: SK-MEL-5
# MCF7 = test system: MCF7
# U-251 = test system: U-251
# SNB-75 = test system: SNB-75
# IGROV-1 = test system: IGROV-1
# SW-620 = test system: SW-620
# HT-29 = test system: HT-29
# MDA-N = test system: MDA-N
# Hs-578T = test system: Hs-578T
# OVCAR-3 = test system: OVCAR-3
# CAKI-1 = test system: CAKI-1
# EKVX = test system: EKVX
# HCC 2998 = test system: HCC 2998
# MDA-MB-435 = test system: MDA-MB-435
# A498 = test system: A498
# NCI-H226 = test system: NCI-H226
structure (smiles),measurement,setting,value
Cc1ccc(S(=O)(=O)NC(=O)NC(C(=O)O)C(C)C)cc1 (configuration not stated),GI50,HOP-92,> 100 µM (inactive)
same,GI50,TK-10,> 100 µM (inactive)
same,GI50,SK-MEL-28,> 100 µM (inactive)
same,GI50,786-0,> 100 µM (inactive)
same,GI50,HOP-62,> 100 µM (inactive)
same,GI50,NCI-H460,> 100 µM (inactive)
same,GI50,LOX IMVI,> 100 µM (inactive)
same,GI50,HCT-15,> 100 µM
same,GI50,T47D,> 100 µM (inactive)
same,GI50,SNB-19,> 100 µM (inactive)
same,GI50,UO-31,> 100 µM (inactive)
same,GI50,Malme-3M,> 100 µM (inactive)
same,GI50,NCI-H23,> 100 µM (inactive)
same,GI50,OVCAR-8,> 100 µM (inactive)
same,GI50,SF-295,> 100 µM (inactive)
same,GI50,SR,> 100 µM (inactive)
same,GI50,M14,> 100 µM (inactive)
same,GI50,HCT-116,> 100 µM (inactive)
same,GI50,COLO 205,> 100 µM (inactive)
same,GI50,CCRF-CEM,> 100 µM (inactive)
same,GI50,NCI-H522,> 100 µM (inactive)
same,GI50,RPMI-8226,> 100 µM (inactive)
same,GI50,NCI/ADR-RES,> 100 µM (inactive)
same,GI50,BT-549,> 100 µM (inactive)
same,GI50,MDA-MB-231,> 100 µM (inactive)
same,GI50,SK-OV-3,> 100 µM (inactive)
same,GI50,HL-60,> 100 µM (inactive)
same,GI50,A549,> 100 µM (inactive)
same,GI50,SK-MEL-2,> 100 µM (inactive)
same,GI50,PC-3,> 100 µM (inactive)
same,GI50,UACC-62,> 100 µM (inactive)
same,GI50,KM12,> 100 µM (inactive)
same,GI50,SF-539,> 100 µM (inactive)
same,GI50,SN12C,> 100 µM (inactive)
same,GI50,OVCAR-4,> 100 µM (inactive)
same,GI50,MOLT-4,> 100 µM (inactive)
same,GI50,UACC-257,> 100 µM (inactive)
same,GI50,SF-268,> 100 µM (inactive)
same,GI50,DU-145,> 100 µM (inactive)
same,GI50,ACHN,> 100 µM (inactive)
same,GI50,K562,> 100 µM (inactive)
same,GI50,RXF 393,> 100 µM (inactive)
same,GI50,OVCAR-5,> 100 µM (inactive)
same,GI50,SK-MEL-5,> 100 µM (inactive)
same,GI50,MCF7,> 100 µM (inactive)
same,GI50,U-251,> 100 µM (inactive)
same,GI50,SNB-75,> 100 µM (inactive)
same,GI50,IGROV-1,> 100 µM (inactive)
same,GI50,SW-620,> 100 µM (inactive)
same,GI50,HT-29,> 100 µM (inactive)
same,GI50,MDA-N,> 100 µM (inactive)
same,GI50,Hs-578T,> 100 µM (inactive)
NC1CC(=O)c2c(Br)csc21 (configuration not stated),GI50,TK-10,32.5 µM (inactive)
same,GI50,SK-MEL-28,25.9 µM (inactive)
same,GI50,786-0,82 µM (inactive)
same,GI50,HOP-62,49.8 µM (inactive)
same,GI50,NCI-H460,41 µM (inactive)
same,GI50,OVCAR-3,50.6 µM (inactive)
same,GI50,HCT-15,35.4 µM
same,GI50,T47D,> 100 µM (inactive)
same,GI50,SNB-19,36.3 µM (inactive)
same,GI50,UO-31,33 µM (inactive)
same,GI50,Malme-3M,46.8 µM (inactive)
same,GI50,CAKI-1,55 µM (inactive)
same,GI50,OVCAR-8,42.9 µM (inactive)
same,GI50,SR,46.6 µM (inactive)
same,GI50,M14,> 100 µM (inactive)
same,GI50,HCT-116,46.8 µM (inactive)
same,GI50,COLO 205,58.1 µM (inactive)
same,GI50,CCRF-CEM,42.7 µM (inactive)
same,GI50,RPMI-8226,38.5 µM (inactive)
same,GI50,NCI/ADR-RES,> 100 µM (inactive)
same,GI50,BT-549,33 µM (inactive)
same,GI50,MDA-MB-231,> 100 µM (inactive)
same,GI50,SK-OV-3,> 100 µM (inactive)
same,GI50,HL-60,39.2 µM (inactive)
same,GI50,A549,> 100 µM (inactive)
same,GI50,SK-MEL-2,41 µM (inactive)
same,GI50,PC-3,39.3 µM (inactive)
same,GI50,UACC-62,21.3 µM (inactive)
same,GI50,KM12,32.1 µM (inactive)
same,GI50,SF-539,35.6 µM (inactive)
same,GI50,EKVX,67.6 µM (inactive)
same,GI50,SN12C,27 µM (inactive)
same,GI50,MOLT-4,46.6 µM (inactive)
same,GI50,UACC-257,40.2 µM (inactive)
same,GI50,SF-268,39.3 µM (inactive)
same,GI50,DU-145,> 100 µM (inactive)
same,GI50,ACHN,52 µM (inactive)
same,GI50,K562,50.1 µM (inactive)
same,GI50,RXF 393,54.7 µM (inactive)
same,GI50,OVCAR-5,63.7 µM (inactive)
same,GI50,SK-MEL-5,61.9 µM (inactive)
same,GI50,HCC 2998,19.2 µM (inactive)
same,GI50,MCF7,49 µM (inactive)
same,GI50,U-251,10 µM (inactive)
same,GI50,SNB-75,96.2 µM (inactive)
same,GI50,IGROV-1,33 µM (inactive)
same,GI50,SW-620,30.2 µM (inactive)
same,GI50,MDA-MB-435,21.2 µM (inactive)
same,GI50,A498,78 µM (inactive)
same,GI50,HT-29,40.6 µM (inactive)
same,GI50,MDA-N,12.5 µM (inactive)
O=Cc1cn(CCCCCCCCCCCCn2cc(C=O)c3ccccc32)c2ccccc12,GI50,HOP-92,> 100 µM (inactive)
same,GI50,TK-10,> 100 µM (inactive)
same,GI50,SK-MEL-28,> 100 µM (inactive)
same,GI50,786-0,> 100 µM (inactive)
same,GI50,HOP-62,> 100 µM (inactive)
same,GI50,NCI-H460,> 10 µM (inactive)
same,GI50,OVCAR-3,> 100 µM (inactive)
same,GI50,LOX IMVI,> 100 µM (inactive)
same,GI50,HCT-15,> 100 µM
same,GI50,SNB-19,> 100 µM (inactive)
same,GI50,UO-31,> 100 µM (inactive)
same,GI50,Malme-3M,> 100 µM (inactive)
same,GI50,NCI-H23,3.53 µM (inactive)
same,GI50,CAKI-1,> 100 µM (inactive)
same,GI50,OVCAR-8,> 100 µM (inactive)
same,GI50,SF-295,3.56 µM (inactive)
same,GI50,SR,11.7 µM (inactive)
same,GI50,M14,> 100 µM (inactive)
same,GI50,HCT-116,2.25 µM (inactive)
same,GI50,COLO 205,> 100 µM (inactive)
same,GI50,CCRF-CEM,> 10 µM (inactive)
same,GI50,NCI-H522,38.3 µM (inactive)
same,GI50,NCI/ADR-RES,1.46 µM (inactive)
same,GI50,BT-549,> 100 µM (inactive)
same,GI50,MDA-MB-231,> 100 µM (inactive)
same,GI50,SK-OV-3,> 100 µM (inactive)
same,GI50,HL-60,1.56 µM (inactive)
same,GI50,A549,56 µM (inactive)
same,GI50,SK-MEL-2,> 100 µM (inactive)
same,GI50,PC-3,33.3 µM (inactive)
same,GI50,UACC-62,> 100 µM (inactive)
same,GI50,SF-539,> 100 µM (inactive)
same,GI50,EKVX,7.53 µM (inactive)
same,GI50,SN12C,> 100 µM (inactive)
same,GI50,MOLT-4,> 100 µM (inactive)
same,GI50,UACC-257,2.47 µM (inactive)
same,GI50,SF-268,> 100 µM (inactive)
same,GI50,DU-145,> 100 µM (inactive)
same,GI50,ACHN,4.88 µM (inactive)
same,GI50,K562,0.615 µM (active)
same,GI50,NCI-H226,57.3 µM (inactive)
same,GI50,RXF 393,> 100 µM (inactive)
same,GI50,OVCAR-5,99.1 µM (inactive)
same,GI50,SK-MEL-5,0.611 µM (active)
same,GI50,HCC 2998,> 100 µM (inactive)
same,GI50,MCF7,2.62 µM (inactive)
same,GI50,U-251,> 100 µM (inactive)
same,GI50,IGROV-1,> 100 µM (inactive)
same,GI50,SW-620,> 100 µM (inactive)
same,GI50,MDA-MB-435,5.22 µM (inactive)
same,GI50,A498,61 µM (inactive)
same,GI50,HT-29,> 100 µM (inactive)
same,GI50,MDA-N,> 100 µM (inactive)
same,GI50,Hs-578T,4.04 µM (inactive)
